This note sets out measurements from patent US4315858A, “Antibacterial amide compounds” (Warner-Lambert Company, priority 1980, dated 1982).

SMILES strings stand for the structures. Converted amounts (≈) assume the structure as drawn.

Common to all, as to format: cell-based
The subject of experiment [1] is Pseudomonas aeruginosa #28. Briefly: Minimal inhibitory concentration against Pseudomonas aeruginosa #28.
The test system of a further experiment is Staph. aureus S18713. Briefly: Minimal inhibitory concentration against Staph. aureus S18713. Particulars: Staphylococcus aureus.
The test system of another experiment is Klebs. pneu. The experiment can be described thus: Minimal inhibitory concentration against Klebs. pneu.
The subject of another experiment is Entero. cloacae. The experiment can be described thus: Minimal inhibitory concentration against Entero. cloacae. The conditions noted are these: Enterobacter cloacae.
The subject of the next experiment is Serr. marces. Briefly: Minimal inhibitory concentration against Serr. marces.

Broadly, the MIC is the least concentration at which growth counts as inhibited. For the compound `CC1(C)S[C@@H]2[C@H](NC(=O)[C@H](NC(=O)c3ccc(-c4ccc(NC(=O)Cc5nn[nH]n5)cc4)[nH]c3=O)c3ccc(O)cc3)C(=O)N2[C@H]1C(=O)O` [Example 6], the MIC in experiment [1] was 3.1 µg/mL (≈ 4.51 µM); against Staph. aureus S18713, greater than 50 µg/mL; against Klebs. pneu. it was 12.5 µg/mL (≈ 18.2 µM); in the experiment on Entero. cloacae, 1.6 µg/mL (≈ 2.33 µM); in the experiment on Serr. marces., 1.6 µg/mL (≈ 2.33 µM).
Turning to `CC(=O)Nc1cccc(-c2ccc(C(=O)N[C@@H](C(=O)N[C@@H]3C(=O)N4[C@@H]3SC(C)(C)[C@@H]4C(=O)O)c3ccccc3)c(=O)[nH]2)c1` [Example 15, N-[6-[3-(Acetylamino)phenyl]-1,2-dihydro-2-oxonicotinoyl]ampicillin], the MIC in experiment [1] is 6.3 µg/mL (≈ 10.4 µM); with Staph. aureus S18713 it was greater than 200 µg/mL; in the experiment with Klebs. pneu. it was 3.1 µg/mL (≈ 5.14 µM); against Entero. cloacae, 6.3 µg/mL (≈ 10.4 µM); in the experiment on Serr. marces. it was 12.5 µg/mL (≈ 20.7 µM).
Take `CC1(C)S[C@@H]2[C@H](NC(=O)[C@H](NC(=O)c3ccc(-c4ccc(NC(=O)C(F)(F)F)cc4)[nH]c3=O)c3ccc(O)cc3)C(=O)N2[C@H]1C(=O)O` [Example 4, N-[6-[4-(Trifluoroacetylamino)phenyl]-1,2-dihydro-2-oxonicotinoyl]amoxicillin]: the MIC in experiment [1] was found to be 1.6 µg/mL (≈ 2.38 µM); against Staph. aureus S18713, 100 µg/mL (≈ 148 µM); with Klebs. pneu. it was 3.1 µg/mL (≈ 4.6 µM); in the experiment with Entero. cloacae, 3.1 µg/mL (≈ 4.6 µM); with Serr. marces., 100 µg/mL (≈ 148 µM).
Consider `CC(=O)Nc1ccc(-c2ccc(C(=O)N[C@@H](C(=O)N[C@@H]3C(=O)N4[C@@H]3SC(C)(C)[C@@H]4C(=O)O)c3ccc(O)cc3)c(=O)[nH]2)cc1` [Example 2, N-[6-[4-(acetylamino)phenyl]-1,2-dihydro-2-oxonicotinoyl]amoxicillin], for which the MIC in experiment [1] was 3.1 µg/mL (≈ 5 µM); in the experiment with Staph. aureus S18713 it was 200 µg/mL (≈ 323 µM); against Klebs. pneu., 12.5 µg/mL (≈ 20.2 µM); against Entero. cloacae, 6.3 µg/mL (≈ 10.2 µM); with Serr. marces., 25 µg/mL (≈ 40.3 µM).
Take `CC1(C)S[C@@H]2[C@H](NC(=O)[C@H](NC(=O)c3ccc(-c4ccc(NC(=O)OCc5ccccc5)cc4)[nH]c3=O)c3ccccc3)C(=O)N2[C@H]1C(=O)O` [Example 11, N-[6-[4-(Benzyloxycarbonylamino)phenyl]-1,2-dihydro-2-oxonicotinoyl]ampicillin]: the MIC came out at 1.6 µg/mL (≈ 2.3 µM) in experiment [1]; 50 µg/mL (≈ 71.9 µM) in the experiment with Staph. aureus S18713; 0.8 µg/mL (≈ 1.15 µM) with Klebs. pneu.; 6.3 µg/mL (≈ 9.05 µM) in the experiment with Entero. cloacae; 12.5 µg/mL (≈ 18 µM) against Serr. marces..
With `CCOC(=O)C(=O)Nc1ccc(-c2ccc(C(=O)N[C@@H](C(=O)N[C@@H]3C(=O)N4[C@@H]3SC(C)(C)[C@@H]4C(=O)O)c3ccc(O)cc3)c(=O)[nH]2)cc1` [Example 10, N-[6-[4-[(2-Ethoxy-1,2-dioxoethyl)amino]phenyl]-1,2-dihydro-2-oxonicotinoyl]amoxicillin], the MIC in experiment [1] was determined as 6.3 µg/mL (≈ 9.3 µM); in the experiment on Staph. aureus S18713, 50 µg/mL (≈ 73.8 µM); in the experiment with Klebs. pneu. it was 6.3 µg/mL (≈ 9.3 µM); in the experiment with Entero. cloacae, 1.6 µg/mL (≈ 2.36 µM); in the experiment on Serr. marces. it was 200 µg/mL (≈ 295 µM).
Take `CC1(C)S[C@@H]2[C@H](NC(=O)[C@H](NC(=O)c3ccc(-c4ccc(NC(=O)C(F)(F)F)cc4)[nH]c3=O)c3ccccc3)C(=O)N2[C@H]1C(=O)O` [Example 3, N-[6-[4(Trifluoroacetylamino)phenyl]-1,2-dihydro-2-oxonicotinoyl]ampicillin]: the MIC in experiment [1] amounted to 6.3 µg/mL (≈ 9.58 µM); in the experiment with Staph. aureus S18713, 200 µg/mL (≈ 304 µM); against Klebs. pneu., 6.3 µg/mL (≈ 9.58 µM); against Entero. cloacae, 3.1 µg/mL (≈ 4.71 µM); against Serr. marces., 25 µg/mL (≈ 38 µM).
Take `CC1(C)S[C@@H]2[C@H](NC(=O)[C@H](NC(=O)c3ccc(-c4ccc(NC(=O)Cc5ccccc5)cc4)[nH]c3=O)c3ccc(O)cc3)C(=O)N2[C@H]1C(=O)O` [Example 13, N-[6-[4-(Phenylacetylamino)phenyl]-1,2-dihydro-2-oxonicotinoyl]amoxicillin]: the MIC in experiment [1] was 1.6 µg/mL (≈ 2.3 µM); in the experiment on Staph. aureus S18713, 50 µg/mL (≈ 71.9 µM); against Klebs. pneu., 3.1 µg/mL (≈ 4.46 µM); in the experiment on Entero. cloacae it was 1.6 µg/mL (≈ 2.3 µM); against Serr. marces., 50 µg/mL (≈ 71.9 µM).
With `CC1(C)S[C@@H]2[C@H](NC(=O)[C@H](NC(=O)c3ccc(-c4ccc(NC(=O)CSCC(F)(F)F)cc4)[nH]c3=O)c3ccc(O)cc3)C(=O)N2[C@H]1C(=O)O` [Example 8], the MIC in experiment [1] is 0.8 µg/mL (≈ 1.09 µM); in the experiment on Staph. aureus S18713, greater than 50 µg/mL; against Klebs. pneu., 3.1 µg/mL (≈ 4.22 µM); against Entero. cloacae it was 6.3 µg/mL (≈ 8.59 µM); against Serr. marces., 0.4 µg/mL (≈ 0.545 µM).
As for `CC1(C)S[C@@H]2[C@H](NC(=O)[C@H](NC(=O)c3ccc(-c4ccc(NC(=O)CSCC#N)cc4)[nH]c3=O)c3ccc(O)cc3)C(=O)N2[C@H]1C(=O)O` [Example 9], the MIC in experiment [1] is 1.6 µg/mL (≈ 2.32 µM); in the experiment on Staph. aureus S18713, greater than 50 µg/mL; in the experiment on Klebs. pneu., 6.3 µg/mL (≈ 9.12 µM); against Entero. cloacae it was 12.5 µg/mL (≈ 18.1 µM); against Serr. marces. it was 1.6 µg/mL (≈ 2.32 µM).
`CC(=O)C(=O)Nc1ccc(-c2ccc(C(=O)N[C@@H](C(=O)N[C@@H]3C(=O)N4[C@@H]3SC(C)(C)[C@@H]4C(=O)O)c3ccc(O)cc3)c(=O)[nH]2)cc1` [Example 7, N-[6-[4-(1,2-Dioxopropylamino)phenyl]-1,2-dihydro-2-oxonicotinoyl]amoxicillin]: the MIC in experiment [1] was found to be 1.6 µg/mL (≈ 2.47 µM); against Staph. aureus S18713, 25 µg/mL (≈ 38.6 µM); with Klebs. pneu., 12.5 µg/mL (≈ 19.3 µM); in the experiment on Entero. cloacae, 3.1 µg/mL (≈ 4.79 µM); in the experiment on Serr. marces., 3.1 µg/mL (≈ 4.79 µM).
With `CC(=O)Nc1ccc(-c2ccc(C(=O)N[C@@H](C(=O)N[C@@H]3C(=O)N4[C@@H]3SC(C)(C)[C@@H]4C(=O)O)c3ccccc3)c(=O)[nH]2)cc1` [Example 1, N-[6-[4-(Acetylamino)phenyl]-1,2-dihydro-2-oxonicotinoyl]-ampicillin], the MIC stood at 3.1 µg/mL (≈ 5.14 µM) in experiment [1]; 100 µg/mL (≈ 166 µM) in the experiment on Staph. aureus S18713; 6.3 µg/mL (≈ 10.4 µM) against Klebs. pneu.; 12.5 µg/mL (≈ 20.7 µM) in the experiment with Entero. cloacae; 25 µg/mL (≈ 41.4 µM) against Serr. marces..
Consider `COC(=O)Nc1ccc(-c2ccc(C(=O)N[C@@H](C(=O)N[C@@H]3C(=O)N4[C@@H]3SC(C)(C)[C@@H]4C(=O)O)c3ccc(O)cc3)c(=O)[nH]2)cc1` [Example 12, N-[6-[4-(Methoxycarbonylamino)phenyl]-1,2-dihydro-2-oxonicotinoyl]amoxicillin], for which the MIC in experiment [1] came to 1.6 µg/mL (≈ 2.52 µM); against Staph. aureus S18713, 100 µg/mL (≈ 157 µM); against Klebs. pneu., 3.1 µg/mL (≈ 4.88 µM); with Entero. cloacae, 1.6 µg/mL (≈ 2.52 µM); against Serr. marces., 25 µg/mL (≈ 39.3 µM).
Turning to `CCNC(=O)Nc1ccc(-c2ccc(C(=O)N[C@@H](C(=O)N[C@@H]3C(=O)N4[C@@H]3SC(C)(C)[C@@H]4C(=O)O)c3ccc(O)cc3)c(=O)[nH]2)cc1` [Example 14, N-[6-[4-(N-Ethylcarbamoylamino)phenyl]-1,2-dihydro-2-oxonicotinoyl]amoxicillin], the MIC is 0.8 µg/mL (≈ 1.23 µM) in experiment [1]; 50 µg/mL (≈ 77.1 µM) against Staph. aureus S18713; 6.3 µg/mL (≈ 9.71 µM) in the experiment with Klebs. pneu.; 3.1 µg/mL (≈ 4.78 µM) with Entero. cloacae; 0.8 µg/mL (≈ 1.23 µM) in the experiment with Serr. marces..
`CC1(C)S[C@@H]2[C@H](NC(=O)[C@H](NC(=O)c3ccc(-c4ccc(NC(=O)CC#N)cc4)[nH]c3=O)c3ccc(O)cc3)C(=O)N2[C@H]1C(=O)O` [Example 5]: the MIC in experiment [1] was 1.6 µg/mL (≈ 2.48 µM); against Staph. aureus S18713, 100 µg/mL (≈ 155 µM); with Klebs. pneu. it was 3.1 µg/mL (≈ 4.81 µM); in the experiment with Entero. cloacae, 1.6 µg/mL (≈ 2.48 µM); in the experiment on Serr. marces., 200 µg/mL (≈ 310 µM).
